Measured values as given in US20230041563A1, “N-(1,3,4-OXADIAZOL-2-YL)ARYLCARBOXAMIDES OR SALTS THEREOF, PREPARATION METHODS, HERBICIDAL COMPOSITIONS AND USES THEREOF” (priority 2018, published 2023).

System: Rice
Experiment: Transplanted rice safety evaluation and weed control effect evaluation in rice field
Assay type: in vivo, rice (japonica rice/Indica rice)
Conditions: Table 7, dose 125 g a.i./ha, 21 days after treatment
Outline: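 Japonica and Indica rice at 3-leaf stage transplanted into flooded paddy soil (3-4 cm water). Compound applied 5 days after transplanting. Weeds scored visually on 0-5 scale at 14 days; rice injury at 21 days.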

## CCSc1c(C(F)(F)F)ccc(C(=O)Nc2nnc(C)o2)c1F [Compound 1-4]
  Rice (safety level): 0 (Level 0: growth control rate is less than 5%)
